Literature values, collected in patent US10059967B2, “Microorganisms and processes for producing terephthalic acid and its salts” (Genomatica, Inc., priority 2012, dated 2018).

## Cc1ccc(C(=O)O)cc1 [p-toluate, 4-methylbenzoate]
  solubility in aqueous solution (in words): Only slightly soluble
